From BigSolDB 2.1

O=C(O)c1ccccc1C(=O)O
Conditions	solubility (mole fraction)
in DMAc, 295.05 K	0.163
in DMAc, 296.15 K	0.168
in DMAc, 298.35 K	0.18
in DMAc, 301.15 K	0.193
in DMAc, 302.95 K	0.201
in DMAc, 305.05 K	0.211
in DMAc, 306.35 K	0.22
in DMAc, 308.15 K	0.229
in DMAc, 309.25 K	0.238
in DMAc, 310.65 K	0.249
in DMAc, 312.15 K	0.258
in DMAc, 313.15 K	0.268
in DMAc, 314.35 K	0.276
in DMAc, 316.05 K	0.286
in DMAc, 316.65 K	0.295
in DMAc, 318.15 K	0.305
in DMAc, 319.15 K	0.314
in DMAc, 321.15 K	0.323
in DMAc, 323.15 K	0.334
in DMAc, 325.05 K	0.343
in DMAc, 326.85 K	0.353
in DMAc, 328.15 K	0.362
in DMAc, 329.35 K	0.373
in DMAc, 330.35 K	0.381
in DMAc, 331.25 K	0.389
in DMAc, 331.95 K	0.396
in DMAc, 333.15 K	0.405
in DMAc, 333.95 K	0.415
in DMAc, 334.95 K	0.427
in DMF, 304.15 K	0.399
in DMF, 309.15 K	0.42
in DMF, 311.05 K	0.426
in DMF, 314.65 K	0.435
in DMF, 316.75 K	0.441
in DMF, 319.15 K	0.446
in DMF, 323.35 K	0.464
in DMF, 326.15 K	0.476
in DMF, 328.65 K	0.481
in DMF, 330.75 K	0.491
in DMF, 332.45 K	0.499
in DMF, 335.35 K	0.509
in DMF, 338.25 K	0.516
in DMF, 342.15 K	0.528
in DMSO, 291.55 K	0.333
in DMSO, 304.25 K	0.344
in DMSO, 306.25 K	0.348
in DMSO, 309.65 K	0.352
in DMSO, 313.65 K	0.354
in DMSO, 317.25 K	0.357
in DMSO, 321.65 K	0.362
in DMSO, 324.15 K	0.364
in DMSO, 328.15 K	0.368
in DMSO, 331.35 K	0.37
in DMSO, 335.15 K	0.373
in DMSO, 339.65 K	0.378
in DMSO, 342.15 K	0.38
in NMP, 293.55 K	0.0649
in NMP, 298.35 K	0.0801
in NMP, 303.25 K	0.0925
in NMP, 305.15 K	0.0988
in NMP, 307.95 K	0.105
in NMP, 310.15 K	0.116
in NMP, 314.05 K	0.128
in NMP, 319.25 K	0.147
in NMP, 321.65 K	0.158
in NMP, 325.15 K	0.173
in NMP, 327.25 K	0.184
in NMP, 330.15 K	0.202
in NMP, 333.25 K	0.219
in acetonitrile, 296.95 K	0.0247
in acetonitrile, 302.05 K	0.0282
in acetonitrile, 308.25 K	0.0323
in acetonitrile, 314.65 K	0.0367
in acetonitrile, 318.35 K	0.039
in acetonitrile, 321.15 K	0.0402
in acetonitrile, 323.35 K	0.0417
in acetonitrile, 325.15 K	0.0429
in acetonitrile, 327.15 K	0.0443
in acetonitrile, 329.15 K	0.0457
in acetonitrile, 330.95 K	0.048
in acetonitrile, 332.75 K	0.0491
in acetonitrile, 334.35 K	0.0504
in n-methylformamide, 294.35 K	0.184
in n-methylformamide, 298.95 K	0.19
in n-methylformamide, 303.35 K	0.196
in n-methylformamide, 307.35 K	0.201
in n-methylformamide, 311.15 K	0.203
in n-methylformamide, 315.35 K	0.207
in n-methylformamide, 318.95 K	0.211
in n-methylformamide, 323.15 K	0.216
in n-methylformamide, 327.95 K	0.221
in n-methylformamide, 334.35 K	0.229
in propionic acid, 298.75 K	0.00308
in propionic acid, 306.65 K	0.00404
in propionic acid, 312.15 K	0.00478
in propionic acid, 316.15 K	0.00524
in propionic acid, 320.65 K	0.00579
in propionic acid, 323.65 K	0.00642
in propionic acid, 327.75 K	0.00704
in propionic acid, 331.35 K	0.0079
in propionic acid, 335.15 K	0.00876
in propionic acid, 338.75 K	0.00983

Cc1ccccc1C(=O)O
Conditions	solubility (mole fraction)
in DMAc, 307.65 K	0.0781
in DMAc, 309.65 K	0.0831
in DMAc, 311.25 K	0.0866
in DMAc, 313.15 K	0.0964
in DMAc, 314.35 K	0.106
in DMAc, 317.65 K	0.121
in DMAc, 320.25 K	0.133
in DMAc, 321.85 K	0.143
in DMAc, 325.25 K	0.168
in DMAc, 327.55 K	0.187
in DMAc, 330.25 K	0.21
in DMAc, 332.65 K	0.231
in DMAc, 334.35 K	0.248
in DMAc, 336.15 K	0.264
in DMAc, 337.35 K	0.28
in DMAc, 338.95 K	0.291
in DMAc, 340.35 K	0.309
in DMAc, 341.15 K	0.327
in DMAc, 342.05 K	0.344
in DMAc, 343.15 K	0.362
in DMAc, 344.35 K	0.384
in DMF, 291.15 K	0.329
in DMF, 295.85 K	0.342
in DMF, 299.95 K	0.357
in DMF, 303.75 K	0.371
in DMF, 307.65 K	0.39
in DMF, 311.55 K	0.407
in DMF, 315.55 K	0.423
in DMF, 319.45 K	0.445
in DMF, 323.15 K	0.461
in DMF, 327.25 K	0.481
in DMF, 331.35 K	0.498
in DMSO, 294.05 K	0.497
in DMSO, 299.65 K	0.514
in DMSO, 302.95 K	0.523
in DMSO, 306.35 K	0.534
in DMSO, 308.35 K	0.537
in DMSO, 310.85 K	0.542
in DMSO, 313.15 K	0.548
in DMSO, 315.15 K	0.557
in DMSO, 319.65 K	0.57
in DMSO, 323.65 K	0.581
in DMSO, 327.65 K	0.591
in DMSO, 330.05 K	0.6
in DMSO, 332.15 K	0.608
in DMSO, 334.55 K	0.617
in NMP, 288.95 K	0.449
in NMP, 292.95 K	0.455
in NMP, 296.95 K	0.471
in NMP, 300.65 K	0.49
in NMP, 304.65 K	0.499
in NMP, 308.65 K	0.51
in NMP, 312.65 K	0.518
in NMP, 316.65 K	0.531
in NMP, 321.35 K	0.542
in NMP, 326.35 K	0.559
in acetonitrile, 299.15 K	0.314
in acetonitrile, 300.25 K	0.316
in acetonitrile, 302.95 K	0.323
in acetonitrile, 305.55 K	0.329
in acetonitrile, 310.65 K	0.34
in acetonitrile, 314.35 K	0.346
in acetonitrile, 315.45 K	0.35
in acetonitrile, 319.25 K	0.36
in acetonitrile, 322.65 K	0.369
in acetonitrile, 325.55 K	0.378
in acetonitrile, 329.15 K	0.386
in acetonitrile, 331.75 K	0.393
in acetonitrile, 335.15 K	0.401
in acetonitrile, 338.15 K	0.409
in n-methylformamide, 294.95 K	0.276
in n-methylformamide, 298.15 K	0.286
in n-methylformamide, 303.65 K	0.303
in n-methylformamide, 307.95 K	0.32
in n-methylformamide, 312.95 K	0.343
in n-methylformamide, 318.05 K	0.365
in n-methylformamide, 322.35 K	0.379
in n-methylformamide, 326.15 K	0.392
in n-methylformamide, 330.15 K	0.407
in n-methylformamide, 334.35 K	0.434
in propionic acid, 296.35 K	0.155
in propionic acid, 300.35 K	0.179
in propionic acid, 303.65 K	0.198
in propionic acid, 307.65 K	0.212
in propionic acid, 311.25 K	0.232
in propionic acid, 314.85 K	0.253
in propionic acid, 318.35 K	0.273
in propionic acid, 322.45 K	0.301
in propionic acid, 326.05 K	0.334
in propionic acid, 330.25 K	0.363
in propionic acid, 334.15 K	0.397
